# In patent US4348410A, “Cyclohexane carboxylic acid derivatives” (Nippon Chemiphar Co., Ltd., priority 1979, dated 1982):
# Legend:
# acetic acid ulcers = assay: Acetic acid ulcers; format: in vivo, Male Sprague-Dawley strain rats; details: for Ulcer Grade 1 (number of rats): ulcer area 0-10 mm^2; for Ulcer Grade 2 (number of rats): ulcer area 11-20 mm^2; for Ulcer Grade 3 (number of rats): ulcer area 21-30 mm^2; for Ulcer Grade 4 (number of rats): ulcer area 31-40 mm^2; for Ulcer Grade 5 (number of rats): ulcer area >40 mm^2
# Description: Male Sprague-Dawley strain rats, weighing about 200 g were used. Under ether anesthesia 10% acetic acid solution (0.05 ml) was injected carefully between the serous membrane and the muscle near the pylorus, and the abdomen was closed. Thereafter, the animals were maintained under conditions and administered 1 ml/100 g of each test drug dissolved or suspended in 0.5% carboxymethylcellulose solution p.o. daily×10 starting from the next day of the operation. On the 11th day, the rats were sacrificed under ether anesthesia, and the stomachs were removed. The area of the ulcer was measured and graded into 5 degrees as an ulcer index according to the following method: […]
# thrombin = thrombin (Bos taurus, UniProt P00735); assay: Inhibitory effects on thrombin (hydrolysis of p-tosylarginine methyl ester); format: biochemical; details: 37° C., 10 minutes; concentration not given
# Description: The compounds of the formula (I) have excellent inhibitory effects on protease. The inhibitory effects were determined by the following methods:
# Inhibitory effects of the compounds on thrombin were determined according to the method described by M. Muramatsu et al (The Journal of Biochemistry, Volume 65 (1), 17 (1969)). In particular, inhibitory effects of the compounds on hydrolysis of p-tosylarginine methyl ester by thrombin were examined (incubated at 37° C. for 10 minutes).
smiles,measurement,setting,value
N=C(N)NC[C@H]1CC[C@H](C(=O)Oc2ccccc2C(=O)OCc2ccccc2)CC1 [Compound 1],Ulcer Grade 1 (number of rats),acetic acid ulcers; 125 mg/kg p.o. daily×10,15
same,Ulcer Grade 2 (number of rats),acetic acid ulcers; 125 mg/kg p.o. daily×10,1
same,Ulcer Grade 3 (number of rats),acetic acid ulcers; 125 mg/kg p.o. daily×10,2
same,Ulcer Grade 4 (number of rats),acetic acid ulcers; 125 mg/kg p.o. daily×10,0
same,Ulcer Grade 5 (number of rats),acetic acid ulcers; 125 mg/kg p.o. daily×10,0
same,Ulcer Grade 1 (number of rats),acetic acid ulcers; 250 mg/kg p.o. daily×10,14
same,Ulcer Grade 2 (number of rats),acetic acid ulcers; 250 mg/kg p.o. daily×10,1
same,Ulcer Grade 3 (number of rats),acetic acid ulcers; 250 mg/kg p.o. daily×10,1
same,Ulcer Grade 4 (number of rats),acetic acid ulcers; 250 mg/kg p.o. daily×10,0
same,Ulcer Grade 5 (number of rats),acetic acid ulcers; 250 mg/kg p.o. daily×10,0
same,Ulcer Grade 1 (number of rats),acetic acid ulcers; 500 mg/kg p.o. daily×10,16
same,Ulcer Grade 2 (number of rats),acetic acid ulcers; 500 mg/kg p.o. daily×10,2
same,Ulcer Grade 3 (number of rats),acetic acid ulcers; 500 mg/kg p.o. daily×10,0
same,Ulcer Grade 4 (number of rats),acetic acid ulcers; 500 mg/kg p.o. daily×10,0
same,Ulcer Grade 5 (number of rats),acetic acid ulcers; 500 mg/kg p.o. daily×10,0
same,Inhibition (%) Thrombin,thrombin,37%
